“Also recorded” adds a separate entry of the source.
Key:
[1] = Quantum yield determination (absolute, integrating sphere)
Method: Unless otherwise noted, Φf values were measured in PBS, pH 7.4. This instrument uses an integrating sphere to determine photons absorbed and emitted by a sample. Measurements were carried out using dilute samples (A<0.1) and self-absorption corrections^24 were performed using the instrument software. Reported values are averages (n=3).

[2] = UV-vis and fluorescence spectroscopy; details: for absorptivity, quantum yield and brightness in nonpolar conditions relative to PBS: SDS micelles and dioxane:water mixtures
Method: Spectroscopy was performed using 1-cm path length, 3.5-mL quartz cuvettes from Starna Cells. All measurements were taken at ambient temperature (22±2° C.). […] Fluorescence spectra were recorded on a Cary Eclipse fluorometer (Varian). Unless otherwise noted, maximum absorption wavelength (λabs), extinction coefficient (ε), and maximum emission wavelength (λem) were measured in PBS, pH 7.4. Reported values and spectra are averages (n=3).

[3] = system: mitochondria of live U2OS cells; experiment: Cellular retention after dye-free media exchange washes; type: cell-based; details: 1 h, 37° C., 0, 1 or 2 dye-free media washes
Method: To compare cellular retention of 15, 20, and MitoView 405, U2OS cells were incubated with 15 (200 nM), 20 (200 nM) or MitoView 405 (100 nM; Biotium) for 1 h at 37° C.

[4] = Chemical stability by fluorescence in different buffers and media; type: physicochemical; details: 1 μM; citrate pH 5, PBS pH 7.4, Tris pH 9, DMEM, DMEM+10% FBS
Method: Measurement of chemical stability by fluorescence (FIG. 5A-5B). To compare the chemical stability of 15 in different conditions using changes in fluorescence, samples (1 μM) of 15 were prepared in the following solutions: citrate buffer, pH 5; PBS, pH 7.4; Tris buffer, pH 9; DMEM; and DMEM containing 10% v/v FBS (DMEM+FBS). 200 μL of each solution (n=3) was placed in a black, clear-bottom 96-well microplate (Nunc, 165305) and sealed with an adhesive film. The fluorescence of the DAB dye was monitored using 445 nm excitation and 510-550 nm emission (integrated signal) reading from the bottom of the plate using a TECAN Spark microplate reader controlled with SparkControl software.

[5] = Photochemistry under 405 nm illumination, analysis by LC-MS; type: physicochemical; details: PBS, 5 and 20 min
Method: To investigate photochemistry, solutions of 8, 11, and 13-15 (100 μM) were prepared in PBS and placed in a glass vial. An aliquot of this freshly prepared solution was immediately analyzed by LC-MS (−hv). The solution was then irradiated with 405 nm light from an LED array (LOCTITE CL20 flood array) for 5 min (t=5 min) and 20 min (t=20 min) followed by analysis using LC-MS. Photochemical adducts 17/17i and 18/18i were purified and the spectral properties of these isomeric mixtures were analyzed. These compounds were then treated with 1 or 2 equivalents of NaOH(aq) to hydrolyze the iminium bond; the resulting oxidized coumarin products S1/S1i and S2/S2i were observed by LC-MS.

[6] = Chemical stability (iminium hydrolysis) by LC-MS; type: physicochemical; details: 25 μM; citrate pH 5, PBS pH 7.4, Tris pH 9; sampled every 30 min over 12 h
Method: Measurement of chemical stability and photostability by tandem high-pressure liquid chromatography-mass spectrometry (LC-MS; FIG. 3A-D, FIG. 4A-4D, FIG. 6, FIG. 10). To examine the chemical stability and photostability of the DAB dyes, samples were assessed by tandem high-pressure liquid chromatography-mass spectrometry (LC-MS) using an Agilent 1200 LC-MS system equipped with an autosampler, diode array detector, and mass spectrometry detector (ESI; positive ion mode) using a 4.6×150 mm Gemini NX-C18 column with a 5-95% or 5-50% gradient of CH3CN in H2O containing constant 0.1% (v/v) TFA. Chromatograms were monitored using absorbance at 254 nm or 400 nm. To investigate chemical hydrolysis, solutions of 8, 11, and 13-15 (100 μM) were prepared in PBS, pH 7.4. An aliquot of this freshly prepared solution was immediately analyzed by LC-MS (t=0). The solution was then incubated at ambient temperature protected from light for 48 h and analyzed again by LC-MS (t=48 h). Standard samples of coumarins 6, 10, and 12 (100 μM, PBS) were analyzed in the same manner. To compare the stability of compounds 15 and 20 under different conditions, solutions of each dye (25 μM) in citrate buffer, pH 5, PBS, pH 7.4, or Tris buffer, pH 9 were prepared in an autosampler vial and the sample was analyzed using the LC-MS instrumentation every 30 min. […]

U2OS cells = experiment: In-cell photostability experiments; type: cell-based; details: 405 nm laser, 15 photobleaching cycles
Method: In-cell photostability experiments (FIG. 9C). U2OS cells were incubated with 15 (200 nM), 20 (200 nM) or MitoView 405 (100 nM; Biotium) for 1 h at 37° C. and imaged live without washing using a Leica SP8 Falcon confocal microscope with enabled adaptive focus control (AFC), an HC PL-APO 86×/1.20 water objective, and a 405 nm diode laser at 58.9% laser power. […] These images were processed using FIJI.^25

SMILES	fluorescence quantum yield (Φf) ([1]; PBS, pH 7.4)	Stokes shift ([2]; PBS, pH 7.4) [nm]	bathochromic shift in λabs relative to parent coumarin ([2]; PBS, pH 7.4) [nm]	shift in λem relative to parent coumarin ([2]; PBS, pH 7.4) [nm]	absorptivity, quantum yield and brightness in nonpolar conditions relative to PBS [2]	maximum fluorescence emission wavelength (λem) ([2]; PBS, pH 7.4) [nm]	further results
CCN(CC)c1ccc2c(C)cc(=O)oc2c1 [Compound 6, 7-diethylamino-4-methylcoumarin, reference compound]	0.06	–	–	–	–	–	–
Cc1cc(N2CCC2)[o+]c2cc(N3CCC3)ccc12.O=C([O-])C(F)(F)F [Compound 11, 2,7-Di(azetidin-1-yl) 4-methylbenzopyrylium trifluoroacetate]	0.79	99	48	34	–	–	–
Cc1cc(=[N+]2CCCCC2)oc2c3c4c(cc12)CCCN4CCC3.O=C([O-])C(F)(F)F [Compound 15, 1-(9-methyl-2,3,6,7-tetrahydro-1H,5H,11H-pyrano[2,3-f]pyrido[3,2,1-ij]quinolin-11-ylidene)piperidin-1-ium trifluoroacetate]	–	–	–	–	higher absorptivity and fluorescence quantum yield	–	cellular signal upon media exchange (retention) ([3]; trifluoroacetate): rapidly decreased upon media exchange; also recorded: signal rapidly decreased; rate of hydrolysis in different buffer conditions [4]: modestly higher rates of hydrolysis was observed at elevated pH or in cell culture media containing serum; photochemical oxidation [5]: no photochemically driven oxidation was detected on the piperidine ring
CC[N+](CC)=c1cc(C)c2cc3c4c(c2o1)CCCN4CCC3.O=C([O-])C(F)(F)F [Compound 13, N-ethyl-N-(9-methyl-2,3,6,7-tetrahydro-1H,5H,11H-pyrano[2,3-f]pyrido[3,2,1-ij]quinolin-11-ylidene)ethanaminium trifluoroacetate]	–	68	–	–	–	513	–
CCN(CC)c1ccc2c(C)cc(N(CC)CC)[o+]c2c1.O=C([O-])C(F)(F)F [Compound 8, 2,7-Bis(diethylamino)-4-methylbenzopyrylium trifluoroacetate]	0.16	65	45	26	–	–	–
Cc1cc(=[N+]2CCC(CCCC3CC[N+](=c4cc(C)c5cc6c7c(c5o4)CCCN7CCC6)CC3)CC2)oc2c3c4c(cc12)CCCN4CCC3.O=C([O-])C(F)(F)F.O=C([O-])C(F)(F)F (stereo not shown) [Compound 20, 4,4′-(propane-1,3-diyl)bis(1-(9-methyl-2,3,6,7-tetrahydro-1H,5H,11H-pyrano[2,3-f]pyrido[3,2,1-ij]quinolin-11-ylidene)piperidin-1-ium) trifluoroacetate]	0.45	–	–	–	brighter in dioxane:water mixtures	524	cellular signal upon media exchange (retention) [3]: retained; rate of hydrolysis relative to 15 [6]: slightly higher rate of hydrolysis; fluorescence quantum yield (Φf) ([1]; PBS containing 0.1% w/v SDS): 0.83; extinction coefficient at λabs (ε) ([2]; PBS containing 0.1% w/v SDS): 78,900 M^−1 cm^−1; maximum absorption wavelength (λabs) ([2]; PBS, pH 7.4): 447 nm; extinction coefficient at λabs (ε) ([2]; aqueous solution (PBS, pH 7.4)): 45,200 M^−1 cm^−1; resistance to photobleaching in live cells (U2OS cells): best overall photostability

— patent US12528944B2, “Live-cell fluorescent mitochondrial stains” (HOWARD HUGHES MEDICAL INSTITUTE, priority 2022, dated 2026)
